“And” between values parts separate entries of the source, which are not always exact repeats. Equal values may be shown once.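 Each compound was tested at five concentrations against cells in 96-well plates for 48 hours. At the GI50, growth is halved. TGI marks complete inhibition of growth.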
Tests used:
Assay in all cases: DTP human tumour cell line panel, 48 h
A498 renal = tested on: A498 renal
HCC-2998 colon = tested on: HCC-2998 colon
KM12 colon = tested on: KM12 colon
MALME-3M melanoma = tested on: MALME-3M melanoma
RPMI-8226 leukemia = tested on: RPMI-8226 leukemia
RXF 393 renal = tested on: RXF 393 renal
SF-268 CNS = tested on: SF-268 CNS
SK-OV-3 ovarian = tested on: SK-OV-3 ovarian
SN12C renal = tested on: SN12C renal
TK-10 renal = tested on: TK-10 renal

SMILES | TGI (A498 renal) | TGI (HCC-2998 colon) | TGI (KM12 colon) | TGI (MALME-3M melanoma) | TGI (RPMI-8226 leukemia) | TGI (RXF 393 renal) | TGI (SF-268 CNS) | TGI (SK-OV-3 ovarian) | TGI (SN12C renal) | TGI (TK-10 renal) | GI50 (A498 renal) | GI50 (HCC-2998 colon) | GI50 (KM12 colon) | GI50 (MALME-3M melanoma) | GI50 (RPMI-8226 leukemia) | GI50 (RXF 393 renal) | GI50 (SF-268 CNS) | GI50 (SK-OV-3 ovarian) | GI50 (SN12C renal) | GI50 (TK-10 renal)
COc1ccc(/C=C\c2cc(OC)c3c(c2)OCO3)c(O)c1O | 31.2 µM | > 58 µM | 21.4 µM | 48.7 µM | 18.2 µM | 11.7 µM | 18.8 µM | > 77 µM | 41.4 µM | > 86.6 µM | – | – | – | – | – | – | – | – | – | –
CC(C)c1ccc(C(C)C(=O)N(CC2=C(C(C)c3ccccn3)c3ccccc3C2)C(C)C)cc1 (centres undefined) | 5.59 µM | 39.1 µM | 12.2 µM | 8.57 µM | 7.52 µM | 14.3 µM | > 100 µM | > 100 µM | 3.51 µM | > 100 µM | 0.801 µM | 4.52 µM | 3.36 µM | 2.83 µM | 2.32 µM | 2.38 µM | 4.62 µM | 6.63 µM | 1.88 µM | 4.81 µM
CC1(C)COC(c2ccc(C(F)(F)F)cc2C(O)c2ccc3ccccc3c2)=N1 (centres undefined) | > 100 µM | > 100 µM | > 100 µM | > 100 µM | > 100 µM | > 10 µM and 44.3 µM | > 100 µM | > 100 µM | > 100 µM | > 100 µM | > 100 µM | > 100 µM | > 100 µM | > 100 µM | – | > 10 µM | > 10 µM | > 100 µM | > 100 µM | > 100 µM
CN(CC(=O)O)S(=O)(=O)c1ccc2ccccc2c1 | > 100 µM | > 100 µM | > 100 µM | > 100 µM | > 100 µM | > 100 µM | > 100 µM | > 100 µM | > 100 µM | > 100 µM | – | – | – | – | – | – | – | – | – | –
COC(=O)Nc1nc2ccc(S(=O)c3ccccc3)cc2[nH]1 (centres undefined) | > 100 µM | > 100 µM | > 100 µM | > 100 µM | > 100 µM | 26.7 µM | > 100 µM | 12.4 µM | > 100 µM | > 100 µM | 15.5 µM | 10.5 µM | 4.48 µM | 5.21 µM | 5.11 µM | 3.28 µM | > 100 µM | 3.23 µM | 6.98 µM | 12.4 µM
CC1=C(C(=O)Nc2ccc(F)c(Cl)c2)C(c2ccc(Cl)cc2)NC(=O)N1 (centres undefined) | 29 µM | 27.7 µM | 52.1 µM | 38.5 µM | 36.3 µM | 37.2 µM | 73.4 µM | > 100 µM | 32.2 µM | 25.4 µM | 13.9 µM | 14.6 µM | 24.2 µM | 16.8 µM | 13.6 µM | 17.6 µM | 22.1 µM | 81.8 µM | 17.8 µM | 7.4 µM
CC(=O)OC(C)C(=O)C1c2cccc(O)c2C(=O)c2c(O)cc(C)cc21 (centres undefined) | 3.68 µM | 1.69 µM | 1.23 µM | 1.82 µM | 5.98 µM | 0.813 µM | 1.5 µM | 1.81 µM | 2.24 µM | 2.88 µM | – | – | – | – | – | – | – | – | – | –
